Assay results: the NIST ThermoML archive (doi:10.1016/j.jct.2005.09.003)
± gives the expanded uncertainty stated by the source.

Key:
[1] = refractive index (Na D-line) (dimensionless); conditions: 298.15 K; 101.33 kPa; Liquid; Standard Abbe refractometry
[2] = Liquid

CCCCCCCC [octane]
Conditions | refractive index
[1] | 1.395 ± 0.0004

mass density [kg/m3], [2]
Conditions | 298.15 K | 308.15 K | 318.15 K | 328.15 K
100 kPa | 698.64 ± 0.61 | 690.43 ± 0.63 | 682.47 ± 0.65 | 674.53 ± 0.66
2130 kPa | 700.14 ± 0.71 | 692.18 ± 0.73 | 684.48 ± 0.74 | 676.49 ± 0.76
4150 kPa | 701.87 ± 0.8 | 694 ± 0.82 | 686.45 ± 0.83 | 678.56 ± 0.85
6180 kPa | 703.56 ± 0.88 | 695.79 ± 0.9 | 688.29 ± 0.92 | 680.59 ± 0.95
8210 kPa | 705.17 ± 0.97 | 697.53 ± 0.99 | 690.17 ± 1 | 682.57 ± 1
10230 kPa | 706.78 ± 1.1 | 699.24 ± 1.1 | 691.97 ± 1.1 | 684.51 ± 1.1
11250 kPa | 707.58 ± 1.1 | 700.07 ± 1.1 | 692.85 ± 1.1 | 685.44 ± 1.2
12260 kPa | 708.37 ± 1.1 | 700.88 ± 1.2 | 693.77 ± 1.2 | 686.38 ± 1.2
14290 kPa | 709.9 ± 1.2 | 702.55 ± 1.2 | 695.49 ± 1.3 | 688.23 ± 1.3
16310 kPa | 711.41 ± 1.3 | 704.13 ± 1.3 | 697.2 ± 1.4 | 690.03 ± 1.4
18340 kPa | 712.9 ± 1.4 | 705.71 ± 1.4 | 698.86 ± 1.5 | 691.76 ± 1.5
20370 kPa | 714.36 ± 1.5 | 707.23 ± 1.5 | 700.47 ± 1.5 | 693.5 ± 1.6
22390 kPa | 715.78 ± 1.6 | 708.76 ± 1.6 | 702.07 ± 1.6 | 695.17 ± 1.7
24420 kPa | 717.18 ± 1.6 | 710.22 ± 1.7 | 703.61 ± 1.7 | 696.82 ± 1.8
26450 kPa | 718.56 ± 1.7 | 711.66 ± 1.8 | 705.13 ± 1.8 | 698.41 ± 1.8
28470 kPa | 719.9 ± 1.8 | 713.09 ± 1.8 | 706.66 ± 1.9 | 699.98 ± 1.9
29490 kPa | 720.57 ± 1.8 | 713.77 ± 1.9 | 707.38 ± 1.9 | 700.75 ± 2
30500 kPa | 721.22 ± 1.9 | 714.47 ± 1.9 | 708.13 ± 2 | 701.53 ± 2
32530 kPa | 722.53 ± 2 | 715.84 ± 2 | 709.54 ± 2 | 703.01 ± 2.1
34550 kPa | 723.82 ± 2 | 717.18 ± 2.1 | 710.96 ± 2.1 | 704.5 ± 2.2
36580 kPa | 725.06 ± 2.1 | 718.5 ± 2.2 | 712.33 ± 2.2 | 705.96 ± 2.2
38600 kPa | 726.32 ± 2.2 | 719.82 ± 2.2 | 713.68 ± 2.3 | 707.36 ± 2.3
39620 kPa | 726.94 ± 2.2 | 720.45 ± 2.3 | 714.38 ± 2.3 | 708.06 ± 2.4

CCCCCCCl [1-chlorohexane]
Conditions | refractive index
[1] | 1.4172 ± 0.0004

mass density [kg/m3], [2]
Conditions | 298.15 K | 308.15 K | 318.15 K | 328.15 K
100 kPa | 873.42 ± 0.43 | 863.99 ± 0.45 | 854.58 ± 0.46 | 845.18 ± 0.48
2130 kPa | 874.73 ± 0.46 | 865.56 ± 0.48 | 856.27 ± 0.49 | 847.12 ± 0.51
4150 kPa | 876.45 ± 0.49 | 867.35 ± 0.51 | 858.19 ± 0.52 | 849.17 ± 0.54
6180 kPa | 878.31 ± 0.51 | 869.15 ± 0.53 | 860.06 ± 0.55 | 851.16 ± 0.57
8210 kPa | 879.79 ± 0.53 | 870.9 ± 0.56 | 861.91 ± 0.58 | 853.13 ± 0.61
10230 kPa | 881.44 ± 0.56 | 872.61 ± 0.59 | 863.73 ± 0.61 | 855.02 ± 0.64
11250 kPa | 882.22 ± 0.57 | 873.47 ± 0.6 | 864.62 ± 0.63 | 855.98 ± 0.66
12260 kPa | 883.01 ± 0.59 | 874.3 ± 0.62 | 865.5 ± 0.65 | 856.91 ± 0.68
14290 kPa | 884.61 ± 0.62 | 875.96 ± 0.65 | 867.28 ± 0.68 | 858.76 ± 0.71
16310 kPa | 886.16 ± 0.64 | 877.59 ± 0.68 | 869 ± 0.71 | 860.59 ± 0.74
18340 kPa | 887.68 ± 0.67 | 879.2 ± 0.7 | 870.66 ± 0.74 | 862.35 ± 0.78
20370 kPa | 889.18 ± 0.69 | 880.78 ± 0.73 | 872.33 ± 0.77 | 864.12 ± 0.81
22390 kPa | 890.65 ± 0.72 | 882.35 ± 0.76 | 873.95 ± 0.8 | 865.82 ± 0.84
24420 kPa | 892.14 ± 0.74 | 883.86 ± 0.79 | 875.54 ± 0.83 | 867.51 ± 0.87
26450 kPa | 893.54 ± 0.77 | 885.35 ± 0.81 | 877.12 ± 0.86 | 869.18 ± 0.9
28470 kPa | 894.96 ± 0.79 | 886.84 ± 0.84 | 878.67 ± 0.89 | 870.8 ± 0.93
29490 kPa | 895.65 ± 0.8 | 887.56 ± 0.85 | 879.43 ± 0.9 | 871.6 ± 0.95
30500 kPa | 896.32 ± 0.81 | 888.21 ± 0.86 | 880.19 ± 0.91 | 872.4 ± 0.96
32530 kPa | 897.71 ± 0.84 | 889.73 ± 0.89 | 881.7 ± 0.94 | 873.95 ± 0.99
34550 kPa | 899.05 ± 0.86 | 891.14 ± 0.91 | 883.17 ± 0.96 | 875.49 ± 1
36580 kPa | 900.38 ± 0.88 | 892.52 ± 0.93 | 884.63 ± 0.99 | 877.05 ± 1
38600 kPa | 901.69 ± 0.9 | 893.9 ± 0.96 | 886.04 ± 1 | 878.53 ± 1.1
39620 kPa | 902.33 ± 0.91 | 894.55 ± 0.97 | 886.76 ± 1 | 879.31 ± 1.1
